Results: ChEMBL document CHEMBL6121063, “Identification of a Potent and Selective CDK9 Degrader as a Targeted Therapeutic Option for the Treatment of Small-Cell Lung Cancer” (J Med Chem, 2025)
Converted amounts (≈) assume the structure as drawn. Each block holds one molecule with its values, some of them ahead of it.

Experiments:
[1] = target: Cyclin-dependent kinase 5 (Homo sapiens, UniProt Q00535)
[2] = target: Cyclin-dependent kinase 1 (Homo sapiens, UniProt P06493)
[3] = target: Cyclin-dependent kinase 4 (Homo sapiens, UniProt P11802); experiment: Inhibition of CDK4 (unknown origin)
[4] = target: Cyclin-dependent kinase 3 (Homo sapiens, UniProt Q00526); experiment: Inhibition of CDK3 (unknown origin)
[5] = target: Cyclin-dependent kinase 2 (Homo sapiens, UniProt P24941); experiment: Inhibition of CDK2 (unknown origin)
[6] = tested on: NCI-H524; experiment: Antiproliferative activity against human NCI-H524 cells assessed as inhibition of cell growth incubated for 72 hrs by CCK8 assay; assay type: functional, cell-based; settings: NCI-H524, 72 h
[7] = target: Voltage-gated inwardly rectifying potassium channel KCNH2 (Homo sapiens, UniProt Q12809); experiment: Inhibition of human ERG expressed in HEK293 cells by manual-patch clamp assay; assay type: toxicity, cell-based
[8] = Oral bioavailability in Sprague-Dawley rat at 25 mg/kg measured after 12 hrs by LC-MS/MS analysis; assay type: ADME, organism-based; settings: in vivo
[9] = tested on: Mus musculus; experiment: Hematotoxicity in mouse assessed as effect on platelet count at 12.5 to 25 mg/kg, po administered daily for 14 days; assay type: toxicity, organism-based; settings: in vivo, 336 h, dose 12.5-25 mg/kg, time 14 day
[10] = Toxicity in mouse assessed as pathological changes in spleen at 12.5 to 25 mg/kg, po administered daily for 14 days by H and E staining based analysis; assay type: organism-based; settings: in vivo, 336 h, dose 12.5-25 mg/kg, time 14 day
[11] = tested on: Mus musculus; experiment: Toxicity in female NU/NU mouse model xenografted with human NCI-H446 cells expressing luciferase-GFP assessed as effect on body weight at 12.5 to 25 mg/kg, po administered for 19 days; assay type: organism-based; settings: in vivo, 456 h, dose 12.5-25 mg/kg, time 19 day
[12] = Toxicity in mouse assessed as pathological changes in liver at 12.5 to 25 mg/kg, po administered daily for 14 days by H and E staining based analysis; assay type: organism-based; settings: in vivo, 336 h, dose 12.5-25 mg/kg, time 14 day
[13] = Apparent permeability across apical to basolateral side in human Caco-2 cells at 2 uM measured after 60 mins by HPLC analysis; assay type: ADME, cell-based
[14] = Toxicity in mouse assessed as pathological changes in heart at 12.5 to 25 mg/kg, po administered daily for 14 days by H and E staining based analysis; assay type: organism-based; settings: in vivo, 336 h, dose 12.5-25 mg/kg, time 14 day
[15] = AUC (0 to 24 hrs) in Sprague-Dawley rat at 25 mg/kg, po measured after 12 hrs by LC-MS/MS analysis; assay type: ADME, organism-based; settings: in vivo
[16] = Half-life in mouse at 5 mg/kg, iv; assay type: ADME, organism-based; settings: in vivo
[17] = target: Protein cereblon/Cyclin-dependent kinase 9 (Homo sapiens, UniProt P50750+Q96SW2); experiment: PROTAC activity at CRBN/CDK9 in human NCI-H69 cells assessed as induction of CDK9 degradation incubated for 8 hrs by Western blot analysis; assay type: cell-based
[18] = Cytotoxicity against human BEAS-2B cells assessed as inhibition of cell growth incubated for 72 hrs by CCK8 assay; assay type: toxicity, cell-based
[19] = Cytotoxicity against HEK293T cells assessed as inhibition of cell growth incubated for 72 hrs by CCK8 assay; assay type: toxicity, cell-based, HEK-293T; settings: human
[20] = Kinetic solubility of compound in FeSSIF buffer incubated for 2 hrs by LC-MS/MS analysis; assay type: physicochemical; settings: read-out: Kinetic_solubility
[21] = Efflux ratio of apparent permeability across basolateral to apical over apical to basolateral side in human Caco-2 cells at 2 uM measured after 60 mins by HPLC analysis; assay type: ADME, cell-based
[22] = Toxicity in mouse assessed as pathological changes in lung at 12.5 to 25 mg/kg, po administered daily for 14 days by H and E staining based analysis; assay type: organism-based; settings: in vivo, 336 h, dose 12.5-25 mg/kg, time 14 day
[23] = tested on: NCI-H446; experiment: Antiproliferative activity against human NCI-H446 cells assessed as inhibition of cell growth incubated for 72 hrs by CCK8 assay; assay type: functional, cell-based; settings: NCI-H446, 72 h
[24] = Metabolic stability in mouse liver microsomes assessed as parent compound remaining measured after 60 mins; assay type: ADME, Microsome; settings: read-out: Stability
[25] = Apparent permeability across basolateral to apical side in human Caco-2 cells at 2 uM measured after 60 mins by HPLC analysis; assay type: ADME, cell-based
[26] = tested on: NCI-H69; experiment: Antiproliferative activity against human NCI-H69 cells assessed as inhibition of cell growth incubated for 72 hrs by CCK8 assay; assay type: functional, cell-based; settings: NCI-H69, 72 h
[27] = Cytotoxicity against human MCF-10A cells assessed as inhibition of cell growth incubated for 72 hrs by CCK8 assay; assay type: toxicity, cell-based
[28] = tested on: NCI-H446; experiment: Antitumor activity against human NCI-H446 cells xenografted in female NU-NU mouse model assessed as tumor growth inhibition at 12.5 mg/kg, po administered once daily for 15 days relative to control; assay type: functional; settings: NCI-H446, 360 h, time 15 day, read-out: TGI
[29] = Metabolic stability in human liver microsomes assessed as half-life; assay type: ADME, Microsome; settings: liver microsomes
[30] = Metabolic stability in mouse liver microsomes assessed as intrinsic clearance; assay type: ADME, Microsome; settings: liver microsomes, read-out: CLH
[31] = Metabolic stability in mouse liver microsomes assessed as half-life; assay type: ADME, Microsome; settings: liver microsomes
[32] = tested on: Mus musculus; experiment: Hematotoxicity in mouse assessed as effect on WBC count at 12.5 to 25 mg/kg, po administered daily for 14 days; assay type: toxicity, organism-based; settings: in vivo, 336 h, dose 12.5-25 mg/kg, time 14 day
[33] = AUC (0 to infinity) in mouse at 5 mg/kg, iv; assay type: ADME, organism-based; settings: in vivo
[34] = Half-life in Sprague-Dawley rat at 5 mg/kg, iv measured after 12 hrs by LC-MS/MS analysis; assay type: ADME, organism-based; settings: in vivo
[35] = Half-life in mouse at 25 mg/kg, po; assay type: ADME, organism-based; settings: in vivo
[36] = tested on: DMS-114; experiment: Antiproliferative activity against human DMS-114 cells assessed as inhibition of cell growth incubated for 72 hrs by CCK8 assay; assay type: functional, cell-based; settings: DMS-114, 72 h
[37] = Cmax in Sprague-Dawley rat at 25 mg/kg, po measured after 12 hrs by LC-MS/MS analysis; assay type: ADME, organism-based; settings: in vivo
[38] = AUC (0 to 24 hrs) in mouse at 25 mg/kg, po; assay type: ADME, organism-based; settings: in vivo
[39] = Oral bioavailability in mouse at 25 mg/kg; assay type: ADME, organism-based; settings: in vivo
[40] = Cmax in mouse at 25 mg/kg, po; assay type: ADME, organism-based; settings: in vivo
[41] = Cytotoxicity against human L02 cells assessed as inhibition of cell growth incubated for 72 hrs by CCK8 assay; assay type: toxicity, cell-based
[42] = Cmax in Sprague-Dawley rat at 5 mg/kg, iv measured after 12 hrs by LC-MS/MS analysis; assay type: ADME, organism-based; settings: in vivo
[43] = tested on: NCI-H146; experiment: Antiproliferative activity against human NCI-H146 cells assessed as inhibition of cell growth incubated for 72 hrs by CCK8 assay; assay type: functional, cell-based; settings: NCI-H146, 72 h
[44] = Toxicity in mouse assessed as pathological changes in kidney at 12.5 to 25 mg/kg, po administered daily for 14 days by H and E staining based analysis; assay type: organism-based; settings: in vivo, 336 h, dose 12.5-25 mg/kg, time 14 day
[45] = Half-life in Sprague-Dawley rat at 25 mg/kg, po measured after 12 hrs by LC-MS/MS analysis; assay type: ADME, organism-based; settings: in vivo
[46] = AUC (0 to infinity) in mouse at 25 mg/kg, po; assay type: ADME, organism-based; settings: in vivo
[47] = Cmax in mouse at 5 mg/kg, iv; assay type: ADME, organism-based; settings: in vivo
[48] = AUC (0 to 24 hrs) in mouse at 5 mg/kg, iv; assay type: ADME, organism-based; settings: in vivo
[49] = AUC (0 to infinity) in Sprague-Dawley rat at 5 mg/kg, iv measured after 12 hrs by LC-MS/MS analysis; assay type: ADME, organism-based; settings: in vivo
[50] = tested on: NCI-H446; experiment: Antitumor activity against human NCI-H446 cells xenografted in female NU-NU mouse model assessed as tumor growth inhibition at 25 mg/kg, po administered once daily for 15 days relative to control; assay type: functional; settings: NCI-H446, 360 h, time 15 day, read-out: TGI
[51] = AUC (0 to infinity) in Sprague-Dawley rat at 25 mg/kg, po measured after 12 hrs by LC-MS/MS analysis; assay type: ADME, organism-based; settings: in vivo
[52] = AUC (0 to 24 hrs) in Sprague-Dawley rat at 5 mg/kg, iv measured after 12 hrs by LC-MS/MS analysis; assay type: ADME, organism-based; settings: in vivo
[53] = Metabolic stability in human liver microsomes assessed as intrinsic clearance; assay type: ADME, Microsome; settings: liver microsomes, read-out: CLH
[54] = tested on: Mus musculus; experiment: Toxicity in female NU/NU mouse model xenografted with human NCI-H446 cells assessed as effect on body weight at 12.5 to 25 mg/kg, po administered once daily for 15 days; assay type: organism-based; settings: in vivo, 360 h, dose 12.5-25 mg/kg, time 15 day
[55] = Metabolic stability in human liver microsomes assessed as parent compound remaining measured after 60 mins; assay type: ADME, Microsome; settings: read-out: Stability

Chain of Protein cereblon/Cyclin-dependent kinase 9 (P50750 whole entry): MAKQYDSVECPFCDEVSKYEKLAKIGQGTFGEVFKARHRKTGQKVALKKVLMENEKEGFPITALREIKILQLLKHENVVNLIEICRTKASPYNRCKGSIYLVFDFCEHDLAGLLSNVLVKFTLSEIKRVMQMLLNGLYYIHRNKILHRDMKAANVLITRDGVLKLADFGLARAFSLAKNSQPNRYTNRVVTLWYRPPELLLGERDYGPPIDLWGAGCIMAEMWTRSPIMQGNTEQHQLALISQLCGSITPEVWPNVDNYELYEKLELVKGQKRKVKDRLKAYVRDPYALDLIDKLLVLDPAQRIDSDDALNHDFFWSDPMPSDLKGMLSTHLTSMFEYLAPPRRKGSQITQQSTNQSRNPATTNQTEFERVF
Chain of Protein cereblon/Cyclin-dependent kinase 9 (Q96SW2 whole entry): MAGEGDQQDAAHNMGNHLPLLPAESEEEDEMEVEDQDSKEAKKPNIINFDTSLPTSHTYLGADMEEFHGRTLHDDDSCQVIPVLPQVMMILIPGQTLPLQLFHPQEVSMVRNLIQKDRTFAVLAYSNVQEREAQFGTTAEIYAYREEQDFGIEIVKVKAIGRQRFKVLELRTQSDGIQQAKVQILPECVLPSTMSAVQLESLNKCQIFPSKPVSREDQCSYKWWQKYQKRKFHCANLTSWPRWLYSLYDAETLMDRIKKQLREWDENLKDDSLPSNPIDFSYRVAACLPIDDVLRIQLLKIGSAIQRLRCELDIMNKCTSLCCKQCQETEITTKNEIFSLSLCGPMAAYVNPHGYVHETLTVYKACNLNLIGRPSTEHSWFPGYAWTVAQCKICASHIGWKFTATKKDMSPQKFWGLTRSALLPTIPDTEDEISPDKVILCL
Chain of Cyclin-dependent kinase 4 (P11802 whole entry): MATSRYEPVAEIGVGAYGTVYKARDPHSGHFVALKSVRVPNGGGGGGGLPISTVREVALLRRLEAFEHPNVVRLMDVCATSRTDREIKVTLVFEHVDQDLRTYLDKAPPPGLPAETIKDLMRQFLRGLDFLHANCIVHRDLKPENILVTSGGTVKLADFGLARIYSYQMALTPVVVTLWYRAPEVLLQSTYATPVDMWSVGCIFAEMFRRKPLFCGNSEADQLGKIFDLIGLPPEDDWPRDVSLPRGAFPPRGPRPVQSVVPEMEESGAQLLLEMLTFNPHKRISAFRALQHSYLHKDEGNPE
Chain of Cyclin-dependent kinase 5 (Q00535 whole entry): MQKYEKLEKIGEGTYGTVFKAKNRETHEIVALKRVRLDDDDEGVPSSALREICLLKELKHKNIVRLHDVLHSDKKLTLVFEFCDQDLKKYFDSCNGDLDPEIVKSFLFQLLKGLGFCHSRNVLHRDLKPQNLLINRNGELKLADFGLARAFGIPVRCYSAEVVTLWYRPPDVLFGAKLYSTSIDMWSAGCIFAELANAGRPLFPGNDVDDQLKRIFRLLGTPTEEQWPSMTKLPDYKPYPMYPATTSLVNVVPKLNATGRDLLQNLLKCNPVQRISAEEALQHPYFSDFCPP
Chain of Cyclin-dependent kinase 1 (P06493 whole entry): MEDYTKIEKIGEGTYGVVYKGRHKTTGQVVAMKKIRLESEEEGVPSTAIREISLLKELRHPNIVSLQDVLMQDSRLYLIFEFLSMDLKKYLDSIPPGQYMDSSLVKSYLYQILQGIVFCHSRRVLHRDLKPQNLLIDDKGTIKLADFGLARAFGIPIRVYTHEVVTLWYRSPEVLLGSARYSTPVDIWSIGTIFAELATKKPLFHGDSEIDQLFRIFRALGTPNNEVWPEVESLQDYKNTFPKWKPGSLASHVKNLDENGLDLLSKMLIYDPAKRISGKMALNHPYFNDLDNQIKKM
Chain of Voltage-gated inwardly rectifying potassium channel KCNH2 (Q12809 whole entry): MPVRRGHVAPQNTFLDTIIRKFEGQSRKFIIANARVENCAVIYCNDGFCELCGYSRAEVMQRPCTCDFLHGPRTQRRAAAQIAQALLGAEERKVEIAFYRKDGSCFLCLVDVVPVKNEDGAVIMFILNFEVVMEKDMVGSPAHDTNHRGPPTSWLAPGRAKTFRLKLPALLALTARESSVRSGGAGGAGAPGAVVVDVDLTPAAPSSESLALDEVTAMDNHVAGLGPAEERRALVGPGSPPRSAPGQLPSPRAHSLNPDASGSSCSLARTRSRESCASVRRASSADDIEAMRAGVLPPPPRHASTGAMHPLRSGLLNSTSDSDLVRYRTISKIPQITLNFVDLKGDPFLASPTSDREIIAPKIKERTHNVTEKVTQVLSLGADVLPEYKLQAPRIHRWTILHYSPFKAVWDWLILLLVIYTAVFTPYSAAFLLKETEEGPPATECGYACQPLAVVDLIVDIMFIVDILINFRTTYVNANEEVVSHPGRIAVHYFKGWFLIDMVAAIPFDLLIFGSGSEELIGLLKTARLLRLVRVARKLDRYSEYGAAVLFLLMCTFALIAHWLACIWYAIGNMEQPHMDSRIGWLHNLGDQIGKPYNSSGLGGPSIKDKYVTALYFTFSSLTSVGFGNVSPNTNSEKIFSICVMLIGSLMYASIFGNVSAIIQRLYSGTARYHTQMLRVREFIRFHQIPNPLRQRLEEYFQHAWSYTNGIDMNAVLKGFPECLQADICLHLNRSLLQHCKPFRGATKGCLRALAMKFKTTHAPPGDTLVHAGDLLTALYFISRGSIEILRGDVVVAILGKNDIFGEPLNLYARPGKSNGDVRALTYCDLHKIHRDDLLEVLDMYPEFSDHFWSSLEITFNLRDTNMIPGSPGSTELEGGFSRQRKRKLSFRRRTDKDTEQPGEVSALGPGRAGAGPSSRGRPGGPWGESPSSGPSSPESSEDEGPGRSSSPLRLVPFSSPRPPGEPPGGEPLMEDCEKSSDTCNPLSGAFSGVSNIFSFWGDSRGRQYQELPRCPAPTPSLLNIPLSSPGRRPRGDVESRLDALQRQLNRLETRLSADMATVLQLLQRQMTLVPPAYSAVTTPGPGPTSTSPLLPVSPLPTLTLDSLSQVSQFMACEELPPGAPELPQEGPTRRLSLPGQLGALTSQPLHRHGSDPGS
Chain of Cyclin-dependent kinase 3 (Q00526 whole entry): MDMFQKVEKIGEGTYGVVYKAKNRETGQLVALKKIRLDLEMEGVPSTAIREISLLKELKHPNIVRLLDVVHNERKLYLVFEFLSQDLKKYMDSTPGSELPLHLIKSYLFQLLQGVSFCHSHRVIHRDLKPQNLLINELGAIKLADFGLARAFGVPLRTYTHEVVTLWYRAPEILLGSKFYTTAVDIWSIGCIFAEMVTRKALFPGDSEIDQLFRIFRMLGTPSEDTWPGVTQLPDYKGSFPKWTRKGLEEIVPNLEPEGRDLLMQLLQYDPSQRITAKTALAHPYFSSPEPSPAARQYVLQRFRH

IC50 [1]: < 5 nM | IC50 [2]: < 5 nM | IC50 [3]: < 5 nM | IC50 [4]: < 5 nM | IC50 [5]: < 5 nM
SMILES: COCCN1CCN(Cc2ccc(-c3n[nH]c4c3C(=O)c3c(NC(=O)NN5CCOCC5)cccc3-4)cc2)CC1 [RGB-286638]

IC50 [6]: 0.53 nM | bioavailability [8]: 6.5% | Papp A→B at 1 h, 2 µM [13]: 1.81 ×10⁻⁶ cm/s | AUC(0-t) at 12 h [15]: 714 ng·h/mL | half-life [16]: 492 min | DC50 [17]: 1.09 nM | solubility kinetic at 2 h [20]: 234 µM (≈ 189 µg/mL) | efflux ratio at 1 h, 2 µM [21]: 5.2 | IC50 [23]: 1.01 nM | remaining at 1 h [24]: 82.8% | Papp B→A at 1 h, 2 µM [25]: 9.47 ×10⁻⁶ cm/s | IC50 [26]: 1.03 nM | half-life [29]: 106 min | microsomal CLint [30]: 9.4 µL/min/mg | half-life [31]: 145 min | AUC(0-inf) [33]: 2860 ng·h/mL | half-life [34]: 168 min | half-life [35]: 282 min | Cmax [37]: 179 ng/mL | AUC(0-t) [38]: 951 ng·h/mL | bioavailability [39]: 6.8% | Cmax [40]: 277 ng/mL | Cmax [42]: 2000 ng/mL | IC50 [43]: 0.53 nM | half-life [45]: 324 min | AUC(0-inf) [46]: 971 ng·h/mL | Cmax [47]: 2600 ng/mL | AUC(0-t) [48]: 2660 ng·h/mL | AUC(0-inf) [49]: 2330 ng·h/mL | AUC(0-inf) [51]: 893 ng·h/mL | AUC(0-t) at 12 h [52]: 2180 ng·h/mL | microsomal CLint [53]: 11 µL/min/mg | remaining at 1 h [55]: 76.2%
SMILES: O=C1CCC(Nc2cccc(N3CCN(CC4CCN(CC(=O)N5CCC(NC(=O)c6n[nH]cc6NC(=O)c6c(Cl)cccc6Cl)CC5)CC4)CC3)c2)C(=O)N1 (stereo not given)
IC50 [7]: > 30 µM | Activity [9]: Non-toxic | Activity [10]: Minimal_effect | Activity [11]: Non-toxic | Activity [12]: Minimal_effect | Activity [14]: Minimal_effect | IC50 at 72 h [18]: 413 nM | IC50 at 72 h [19]: 95 nM | Activity [22]: Minimal_effect | IC50 at 72 h [27]: 126 nM | inhibition in vivo at 12.5 mg/kg [28]: 79.2% | Activity [32]: Non-toxic | IC50 [36]: 0.53 nM | IC50 at 72 h [41]: 70 nM | Activity [44]: Minimal_effect | inhibition in vivo at 25 mg/kg [50]: 84.8% | Activity [54]: Non-toxic
